# Test results from article PMC12463120, “Phenylalanine‐Based DNA‐Encoded Chemical Libraries for the Discovery of Potent and Selective Small Organic Ligands Against Markers of Cancer and Immune Cells” (Advanced Science, 2025).
# Target: T1, NKG2D-Fc (Homo sapiens, UniProt P26718)
# T1 construct: the extracellular domain of NKG2D was fused with an IgG Fc fragment; made in house; host or cells: CHO cells
# T1 sequence (P26718 73-216 limits assumed): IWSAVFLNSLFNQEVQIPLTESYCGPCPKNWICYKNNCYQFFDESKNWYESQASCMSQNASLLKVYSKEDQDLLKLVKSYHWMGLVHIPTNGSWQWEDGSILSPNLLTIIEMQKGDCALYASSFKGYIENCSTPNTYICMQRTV
# Assay: Flow cytometry on streptavidin sepharose beads coated with NKG2D-Fc
# Type: binding
# Conditions: 300 nM
# Procedure: HT1080.hPSMA and PC3.hACP3 cell lines were generated by lentiviral transduction on wild type cells (HT1080.wt and PC3.wt), according to published procedures9. For long-term storage, cell lines were maintained in liquid nitrogen. Prior to in vitro and in vivo experiments, cells were cultured in DMEM (PC3.wt, PC3.hACP3, HT1080.wt, and HT1080.hPSMA) or RPMI medium (SK-RC-52) (medium provided by Invitrogen) supplemented with FCS (10%, Invitrogen) and antibiotic-antimycotic (1%, AA, Invitrogen) at 37 °C and 5% CO2. For passaging, cells were detached using Trypsin-EDTA 0.05% (Invitrogen) when reaching 90% confluency and re-seeded at a dilution of 1:3 (PC3.hACP3 and PC3.wt) […]
# 2.17 Flow cytometry experiments on cells
# Cancer cells were detached with an Accutase® cell detachment solution, resuspended in a standard culture medium, and transferred to falcon tubes. Cells were counted and centrifuged at 400 rcf for 3 min. […] Data were acquired halting the measurement at 10´ 000 events on a Cytoflex S flow cytometer (Beckman Coulter), and analyzed using the FlowJo software v10 (BD Biosciences). […]
# plate (20 µL/well). […] Data were acquired halting the measurement at 10’000 events on a Cytoflex S flow cytometer (Beckman Coulter) and analyzed using the FlowJo software v10 (BD Biosciences). […]
compound,measurement,value
CC(C)Oc1ccc(-c2cccc(C[C@H](NC(=O)c3ccccc3-c3ccc(C(F)(F)F)cc3)C(=O)N[C@@H](CCCCNC(=S)Nc3ccc4c(c3)C(=O)OC43c4ccc(O)cc4Oc4cc(O)ccc43)C(=O)O)c2)c(F)c1 [compound 30],binding on NKG2D-Fc-coated streptavidin sepharose beads by flow cytometry,significant shift in binding
